# Measured values from patent publication US12116388B2, “Amylin receptor agonists” (Novo Nordisk A/S, priority 2022, dated 2024).
# Starred links: 1 amine or outer side, 2 acyl side, 3 side chain; linkers in the order of their positions; H or OH if unused. Residues, ends and D or L forms follow the SMILES beside them. Groups on a side chain read outwards from the residue. *: point of attachment. C18 diacid = O=C(O)CCCCCCCCCCCCCCCCC(=O)*; γGlu = O=C(O)[C@H](CCC(=O)[*:2])N[*:1]
# Test system: Sprague Dawley (SD) rats
# Assay: Acute food intake in ad libitum fed rat model
# Format: in vivo
# Settings: single s.c. administration, negative value = reduced food intake
# Procedure: Lyophilised compound was dissolved in vehicle, 8 mM phosphate, 250 mM glycerol, 0.007% polysorbate 20, and pH was adjusted to 7.4 with 1N NaOH.
# Normal weight Sprague Dawley (SD) rats from Taconic Europe, Denmark, were used for the acute food intake studies. The purpose of these studies was to test in vivo effect on food intake and to provide an indication of the compounds' duration of action. Experiments were conducted with permission from the Danish Animal Experiments Inspectorate and were performed in accordance with the guidelines of the Danish legislation governing animal experimentation (1987) as well as the National Institutes of Health (publication number 85-23) and the European Convention for the Protection of Vertebrate Animals used for Experimental and other Scientific Purposes (Council of Europe No 123, Strasbourg 1985).
# Prior to study start, rats were acclimatized to the experimental settings for 14 days. During this period, the animals were handled at least 2 times. Immediately upon arrival, rats were put on a reversed light cycle (dark from 10 am-10 pm or 11 am-11 pm) and were transferred into one of three following food intake measuring systems: FeedWin, BioDaq or HM2. Rats were single housed in the FeedWin and BioDaq system and were housed three a cage in the HM2 system (rats were in this case ID-chipped). During the acclimatization period, in which the rats get used to the new light cycle and diet, the animals had free access to food and water. […] Each amylin analogue was tested in a group of 5-6 rats. A vehicle group of 5-6 rats was included in each experiment and were used as reference point. […] The time of dosing was recorded for each rat.
# After dosing, rats were returned to their home cages, where they had access to food and water. Food consumption was recorded individually and continuously by on-line registration for up to 72 h post dosing. At the end of the experiment, body weight was measured again, and animals were euthanized by CO2 overdose.
structure (smiles),measurement,setting,value
"CC[C@H](C)[C@H](NC(=O)[C@H](CCCCNC(=O)CC[C@H](NC(=O)CCCCCCCCCCCCCCCCC(=O)O)C(=O)O)NC(=O)CNC(=O)[C@H](Cc1ccccc1)NC(=O)[C@H](CC(N)=O)NC(=O)[C@H](CC(=O)O)NC(=O)[C@H](CO)NC(=O)[C@H](CO)NC(=O)[C@H](Cc1c[nH]cn1)NC(=O)[C@H](Cc1c[nH]cn1)NC(=O)[C@H](CC(C)C)NC(=O)[C@H](Cc1ccccc1)NC(=O)[C@H](CCC(=O)O)NC(=O)[C@H](C)NC(=O)[C@H](CC(C)C)NC(=O)[C@H](CCCNC(=N)N)NC(=O)[C@H](C)NC(=O)[C@@H](NC(=O)[C@H](CCC(N)=O)NC(=O)[C@H](C)NC(=O)[C@@H](NC(=O)[C@H](CO)NC(=O)[C@H](CC(C)C)NC(=O)[C@H](Cc1c[nH]cn1)NC(=O)[C@H](CO)NC(=O)[C@H](C)NC(C)=O)[C@@H](C)O)[C@@H](C)O)C(=O)N[C@@H](CC(C)C)C(=O)N1CCC[C@H]1C(=O)N1CCC[C@H]1C(=O)N[C@H](C(=O)N[C@@H](CC(=O)O)C(=O)N[C@H](C(=O)NCC(=O)N[C@@H](CO)C(=O)N[C@@H](CC(N)=O)C(=O)N[C@H](C(=O)N1CCC[C@H]1C(N)=O)[C@@H](C)O)C(C)C)[C@@H](C)O [Compound 41, N^1-acetyl,N{Epsilon-25}-[(4S)-4-carboxy-4-(17-carboxyheptadecanoylamino)butanoyl]-[Ala1,Ser2,His3,Leu4,Ser5,Ala7,Gln8,Ala10,Glu14,His17,Asp21,Lys25,Pro28,Pro29,Asp31,Pro37]-human amylin] (Ac-ASHLSTAQTARLAEFLHHSSDNFGK([γGlu-C18 diacid])ILPPTDVGSNTP-NH2)","Food intake relative to vehicle (%) 0-24 hr, 3 nmol/kg",0-24 hr,−88%
same,"Food intake relative to vehicle (%) 24-48 hr, 3 nmol/kg",24-48 hr,−76%
same,"Food intake relative to vehicle (%) 48-72 hr, 3 nmol/kg",48-72 hr,−15%
